Test results taken from patent publication US10441654B2 (priority 2014, dated 2019).
pEC50: −log10 of the molar value. “Also recorded” adds a separate entry of the source.

Legend:
[1] = system: cancer cells; type: cell-based
[2] = system: CT-26 mouse colon carcinoma; details: in vivo
[3] = mouse, in vivo
[4] = system: VSVΔ51; details: mouse, 50 mg/kg
[5] = system: Jak/Stat signalling downstream of IFNβ; type: cell-based
[6] = system: 786-0 cells; type: cell-based
[7] = system: VSVΔ51; type: cell-based
[8] = system: cancer cells; type: cell-based; remark: listed apart in the source
[9] = system: TRAIL and TNFα; type: cell-based, human
[10] = system: interferon stimulated gene (ISG) expression; type: cell-based; details: cells treated with VSVΔ51 and SMC, 20 hours
[11] = system: CT-2A intracranial tumors; details: mouse, in vivo
[12] = system: EMT6 mammary carcinoma; details: mouse, in vivo
[13] = system: cIAP1/2; test: cIAP1/2 knockdown in EMT6 tumors (western blotting); type: in vivo, mouse; details: 50 mg/kg oral gavage
[14] = system: SNB75 cells; test: cells; type: cell-based; details: Homo sapiens, SNB-75, read-out: EC50 of SMC therapy
[15] = system: TNFα; type: cell-based, mouse
[16] = system: IFNβ; type: cell-based
[17] = system: cancer cell lines (n=28); type: cell-based
[18] = system: EMT6 cells; type: cell-based, mouse
[19] = system: TNFα; details: mouse, in vivo, ip
[20] = mouse, in vivo; remark: listed apart in the source
[21] = system: CT-2A, K1580 glioblastoma cells; type: cell-based, mouse
[22] = system: TNFα; details: mouse, in vivo, ip; remark: listed apart in the source

Molecule: IFNγ
- synergy with SMC recapitulated by recombinant cytokine [1]: recapitulated

Molecule: CN[C@@H](C)C(=O)N[C@H](C(=O)N1CCC[C@H]1c1nc(C(=O)c2ccc(F)cc2)cs1)C1CCCCC1 [LCL161]
- tumor growth rate and survival [2]: modest decrease of the tumor growth rate and a slight extension of survival
- tolerability [3]: well tolerated
- weight loss ([3]; po, 50 mg/kg): minimal transient weight loss
- viral replication and spread in vivo [4]: No differences in viral kinetics
- activation of Jak/Stat signalling downstream of IFNβ [5]: do not alter
- cell death outside of the zone of virus infection [6]: dramatic cell death
- VSVΔ51 infectivity in or spread through tumor cells [7]: does not alter
- growth kinetics of VSVΔ51 [7]: does not affect the growth kinetics
- synergy with VSVΔ51 to cause cancer cell death [8]: synergize
- induction of TRAIL and TNFα by IFNβ [9]: potentiated
- ISG gene expression in response to oncolytic VSV infection [10]: no bearing
- neurotoxicity [11]: did not result in any overt neurotoxicity
- cure rate [12]: 17%
- tumor growth and survival [12]: decrease in the rate of tumor growth and a modest extension in survival; also recorded: slightly extended mouse survival
- tumor growth rates and survival [12]: slightly delayed EMT6 tumor growth rates and slightly extended the survival
- duration of cIAP1/2 knockdown in tumors [13]: at least 24 hrs
- duration of cIAP1/2 knockdown in tumors, in some cases [13]: 48 to 72 h
- pEC50 [14]: < 5.60
- cellular production of TNFα upon VSV infection [15]: 5- to 7 fold percentage increase
- IFNβ secretion [16]: slightly lower levels
- cancer cell lines in which SMC treatment enhanced sensitivity to VSVΔ51 [17]: 54%
- enhanced sensitivity: EC50 of VSVΔ51 upon SMC treatment [17]: 10-10,000 fold

Molecule: IFNα
- neurotoxicity [11]: did not result in any overt neurotoxicity
- tumor growth and survival [12]: no effect on EMT6 tumor growth or overall survival
- synergy with SMC recapitulated by recombinant cytokine [1]: recapitulated

Molecule: SM-164
- synergy with VSVΔ51 to cause cancer cell death [8]: synergize

Molecule: CC(C)Cn1cnc2c(N)nc3ccccc3c21 [imiquimod]
- bystander death of SMC treated EMT6 cells [18]: required splenocytes

Molecule: poly(I:C)
- TNFα in serum [19]: robust expression of TNFα
- bystander death of SMC treated EMT6 cells [18]: led to EMT6 cell death directly
- toxicity of direct intracranial administration [20]: without overt toxicities
- tumor growth [12]: no bearing on tumor growth
- glioblastoma cell death by brain lysates of treated mice in the presence of SMCs [21]: enhanced cell death in the presence of SMCs
- TNFα levels from the brain [22]: marked up-regulation of TNFα levels
